Like-named read-outs stand apart in the source and are kept apart here.
What was measured:
MC57 fibroblasts (H-2b) = conditions: MC57 cells infected with LCMV, ritonavir 5 μg/ml for 36 hours
cytotoxic T lymphocytes [1] = assay type: in vivo, C57BL/6 mice; conditions: splenocytes eight days after i.v. LCMV-WE; EL4 cells sensitized with GP33-41 or NP peptide
LCMV = assay type: in vivo, mice; conditions: day D8; 200 pfu LCMV i.v.
hepatitis C virus = assay: Clinical case: patient doubly infected with HIV and HCV treated with ritonavir; assay type: in vivo, human
Description: A patient who is a drug addict is monitored for a double infection with HIV and HCV, discovered in 1986 but undoubtedly prior to this date. The progression of the HIV infection is slow, with a viremia established at around 4 Log HIV RNA copies/ml. The level of CD4 T lymphocytes dropped with a first opportunistic lung infection. […] An HIV protease inhibitor, ritonavir, was introduced into the therapy of the patient and followed since then. The HIV viremia became undetectable during the two months which followed the beginning of the treatment before returning to the previous level from the fourth month. The level of CD4 T lymphocytes increased during this period and continued to increase even after the reappearance of the HIV viremia. By contrast, the HCV viremia became negative at the 7th month after the introduction of ritonavir (FIG. 7), and has remained so two years later.

[2] = system: antibodies specific for the LCMV nucleoprotein and glycoprotein; assay: Antibody response to LCMV nucleoprotein and glycoprotein (ELISA); assay type: in vivo, mice; conditions: ELISA after four and eight weeks
Method: The antibodies specific for the LCMV nucleoprotein and for the LCMV glycoprotein were evaluated after four and eight weeks by an ELISA test as described in O. Planz, P. Seiler, H. Hengartner and R. M. Zinkernagel, Nature, 382, 629 […].

[3] = Appearance of type 1 diabetes in NOD mice; assay type: in vivo; conditions: ritonavir versus diluent
Method: FIG. 5 represents the percentage of nondiabetic NOD mice as a function of time, in the case of a treatment with ritonavir compared with administration of a diluent.
Ritonavir (0.6 mg per 10 g of body weight per day) or a placebo (phosphate buffer PBS) was administered by the intraperitoneal route to NOD mice. The pancreatic islets were removed and cultured for 24 hours in the presence or in the absence of 2.5 μg/ml of ritonavir. The cells were then cocultured with MHC-1-restricted hybridomas (FT6.9 and FT7.9 for 24 hours). The quantity of IL-2 was assayed in the supernatant.

CD8+ T lymphocytes = assay: Proliferation of the CD8+ T lymphocytes in vivo (FACS of splenocytes); design: species or system mice; conditions: 200 pfu LCMV-WE i.v., anti-CD8 FACS
[4] = Experimental allergic encephalitis in mice and transfer of protection; assay type: in vivo
Method: In this experiment, healthy recipient mice not treated with ritonavir received, by the intravenous and/or peritoneal route, cells of the lymph nodes and of the spleen obtained from donor mice treated with ritonavir and having been subjected to the protocol for induction of EAE described above in Example a) and adapted to mice.
The popliteal, inguinal and mesenteric ganglia and the spleen are removed at D10 after injection of MBP, cultured in the presence of 50 μg/ml of MBP. On the third day of culture, the nonadherent cells are recovered, passed over Ficoll and injected into the recipient mice (10×10^6 injected cells).

[5] = target: T1, 20S proteasomes isolated from murine B8 fibroblasts (Mus musculus, UniProt O55234+P70195+Q60692); assay: Hydrolysis of fluorogenic substrates by isolated 20S proteasomes; assay type: biochemical
T1 construct: 20S proteasomes isolated from murine B8 fibroblasts; endogenous in cells; host or cells: murine B8 fibroblasts; 20S proteasome purified from the cells
Method: FIGS. 4B, 4C and 4D show the hydrolysis of the fluorogenic substrate (100 μM Suc-LLVY-MCA, 100 μM (Z)-GGL-MCA and 400 μM Bz-VGR-MCA) of the 20S proteasomes isolated from murine B8 fibroblasts, as a function of variable concentrations of ritonavir and of LLnL (N-acetyl-L-leucinyl-L-leucinal-L-norleucinal, known inhibitor of the proteasome). The results are reported for one hour of digestion with the 20S proteasome (500 ng) in a final volume of 100 μl. The values were located in a linear detection domain and are the mean values of triplicates with standard errors of less than 3%.
The hydrolysis of Suc-LLVY-MCA by the 20S murine proteasomes was tested according to the method described in Example 4.2. under identical conditions except for the fact that a different batch of purified proteasomes was used. The hydrolysis of Suc-LLVY-MCA was measured in the presence of increasing concentrations of ritonavir, nelfinavir (Roche), saquinavir (mesylate) and indinavir (active ingredient of Crixivan® marketed by Merck and Sharp and Dohme). The HIV protease inhibitors were dissolved beforehand in ethanol, methanol, DMSO and water respectively, for use in vitro (FIG. 4E).

[6] = system: ubiquitin proteasome pathway; assay: Degradation of the proteins with a short lifespan (35S pulse-chase); assay type: cell-based; conditions: cells cultured overnight with variable concentration
Method: For these analyses, the cells were cultured overnight in the presence of a variable concentration of ritonavir, preincubated in a medium free of methionine and cysteine for 1 hour, subjected to labelling with ^35S-methionine and ^35S-cysteine for one hour, washed in PBS and subjected to a chase for one hour. After one hour, TCA (trichloroacetic acid at 10% final) was added to the supernatant and the radioactivity of the supernatant not precipitated with TCA was quantified with a Lumaplate (Topcount Packard) (FIG. 4A).

[7] = system: M113 cells presenting the MART-1 antigen; assay: TNFα production by M77-84 T lymphocytes in response to treated M113 melanoma cells; conditions: M113 cells cultured 24 hours with various concentrations
cytotoxic T lymphocytes [8] = assay type: in vivo, C57BL/6 mice; conditions: mice infected in the footpad with LCMV-WE; swelling after seven to eight days
[9] = patients with hepatic cytolysis (cytolysis +)
[10] = patients without hepatic cytolysis (cytolysis −)
[11] = 100 μM substrate, one hour digestion, 500 ng 20S proteasome

Compound: CC(C)c1nc(CN(C)C(=O)N[C@H](C(=O)N[C@@H](Cc2ccccc2)C[C@H](O)[C@H](Cc2ccccc2)NC(=O)OCc2cncs2)C(C)C)cs1 [ritonavir]
- lysis by the anti-LCMV cytotoxic T lymphocytes (MC57 fibroblasts (H-2b)): strongly inhibits
- lysis of the target cells (direct lysis ex vivo after systemic infection) (cytotoxic T lymphocytes [1]): reduced
- viral clearance (titre of viruses in the spleen) (LCMV): decrease in the viral clearance
- HCV viremia (hepatitis C virus; at the 7th month after introduction of ritonavir, remained so two years later): negative
- HIV viremia (hepatitis C virus; during the two months after beginning of treatment, returned to previous level from the fourth month): undetectable
- level of CD4 T lymphocytes (hepatitis C virus; one patient, during treatment): increased
- anti-HCV antibody titre (HCV; during the therapy): increases only in the patients exhibiting cytolysis
- patients in whom the ALAT concentrations increased (HCV; patients coinfected with HCV and HIV): 57%
- Ac index (variation of anti-HCV antibody titre, ratio of the optical densities) (HCV; [9]): 2.19(+/−1.68)
- variation of CD4 (HCV; [9]): 109.4(+/−113) cells /mm^3
- variation of CD8 (HCV; [9]): 203.6(+/−650) cells /mm^3
- variation of HCV-VL (viral HCV load) (HCV; [9]): +0.61 log10 of copies of RNA/ml
- variation of HCV-VL (viral HCV load) (HCV; patients with hepatic cytolysis (cytolysis +), listed as RTN): 0.61(+/−0.3) log10 of copies of RNA/ml
- Ac index (variation of anti-HCV antibody titre, ratio of the optical densities) (HCV; [10]): 0.98(+/−0.24)
- variation of CD4 (HCV; [10]): 88.3(+/−170) cells /mm^3
- variation of CD8 (HCV; [10]): 281.8(+/−394) cells /mm^3
- variation of HCV-VL (viral HCV load) (HCV; [10]): +0.22 log10 of copies of RNA/ml
- variation of HCV-VL (viral HCV load) (HCV; patients without hepatic cytolysis (cytolysis −), listed as RTN): 0.22(+/−0.35) log10 of copies of RNA/ml
- ALAT concentration peak, mean maximum value (HCV; ritonavir group, third month): 418 IU/1
- ALAT concentration peak, variation (HCV; ritonavir group, third month): 96-1570 IU/1
- capacity for synthesizing anti-virus antibodies [2]: does not reduce
- appearance of type 1 diabetes [3]: delays
- proliferation of the CD8+ T lymphocytes in response to the LCMV virus (CD8+ T lymphocytes): Inhibition
- symptoms of EAE in recipient mice after transfer of cells from donor mice treated with ritonavir ([4]; 10×10^6 lymph node and spleen cells injected, EAE induction at D30 after the transfer): no symptom of EAE
- EAE in mice treated with ritonavir ([4]; mouse, in vivo): Results similar to those described in rats
- hydrolysis of the fluorogenic substrate Suc-LLVY-MCA [5, 11]: potent inhibitor
- hydrolysis of the substrate (Z)-GGL-MCA [5, 11]: hardly affected
- cleavage of the substrate Bz-VGR-MCA ("trypsin" type activity) ([5]; 400 μM substrate, one hour digestion, 500 ng 20S proteasome): substantially increased
- "chimotrypsin-like" activity (hydrolysis of Suc-LLVY-MCA), comparison of four HIV-1 protease inhibitors ([5]; different batch of purified proteasomes, increasing concentrations): inhibits
- "chymotrypsin-like" activity of the proteasome ([5]; summary statement): inhibited
- "trypsin" activity of the proteasome ([5]; summary statement): increased
- degradation of proteins with a short lifespan [6]: inhibits in a dose-dependent manner
- presentation of MART-1 antigen: release of TNFα by M77-84 T lymphocytes [7]: inhibition
- swelling of the footpad after injection of LCMV (cytotoxic T lymphocytes [8]): markedly inhibited

From patent publication US6506555B1, “Use of HIV protease inhibiting compounds” (Institut National de la Sante et de la Recherche Medicale …, priority 1998, dated 2003)
